Three compounds from patent publication US9199970B2, “4-[5-(pyridin-4-yl)-1H-1,2,4-triazol-3-yl]pyridine-2-carbonitrile crystalline polymorph and production method therefor” (FUJIYAKUHIN CO., LTD., priority 2012, dated 2015) can be followed below.

SMILES strings stand for the structures. Converted amounts (≈) assume the structure as drawn.

A short description of this data set: Solubility test of various crystal forms (water solubility). It counts as physicochemical. Conditions: concentration of saturated solution determined through measuring absorbance (FIG. 8). How it is done: Solubility Test of Various Crystal Forms
The water solubilities of type I crystals, type II crystals, and the hydrate of compound (1) were determined by calculating each sample concentration of its saturated solution determined through measuring absorbance.
`N#Cc1cc(-c2n[nH]c(-c3ccncc3)n2)ccn1` [hydrate, 4-[5-(pyridin-4-yl)-1H-1,2,4-triazol-3-yl]pyridine-2-carbonitrile] returned a water solubility of 1.9 µg/mL.

`N#Cc1cc(-c2n[nH]c(-c3ccncc3)n2)ccn1` [type I crystals, 4-[5-(pyridin-4-yl)-1H-1,2,4-triazol-3-yl]pyridine-2-carbonitrile] registered a water solubility of 6.2 µg/mL (≈ 25 µM).

For the compound `N#Cc1cc(-c2n[nH]c(-c3ccncc3)n2)ccn1` [type II crystals, 4-[5-(pyridin-4-yl)-1H-1,2,4-triazol-3-yl]pyridine-2-carbonitrile], the water solubility came out at 4.2 µg/mL (≈ 16.9 µM).
